# Measurements taken from patent US20070259926A1, “mGluR5 modulators III” (AstraZeneca AB, priority 2006, published 2007).
# Legend:
# human mGluR5d = target: T1, human mGluR5d (Homo sapiens, UniProt P41594); assay: FLIPR assay: functional assessment of mGluR5 antagonism (intracellular calcium mobilization); format: cell-based; conditions: cells expressing human mGluR5d; read-out: FLIPR hmGluR5d
# T1 construct: expressed in transfected cells
# From the text: The properties of the compounds of the invention can be analyzed using standard assays for pharmacological activity. Examples of glutamate receptor assays are well known in the art as described in for example Aramori et al., Neuron 8:757 (1992), Tanabe et al., Neuron 8:169 (1992), Miller et al., J. Neuroscience 15:6103 (1995), Balazs, et al., J. Neurochemistry 69:151 (1997). The methodology described in these publications is incorporated herein by reference. Conveniently, the compounds of the invention can be studied by means of an assay (FLIPR) that measures the mobilization of intracellular calcium, [Ca^2+]i in cells expressing mGluR5 or another assay (IP3) that measures inositol phosphate turnover.
# Cells expressing human mGluR5d as described in WO97/05252 are seeded at a density of 100,000 cells per well on collagen coated clear bottom 96-well plates with black sides and experiments are done 24 h following seeding. […] The fluorescence signal is sampled 50 times at 1 second intervals followed by 3 samples at 5 second intervals immediately after each of the two additions. Responses are measured as the difference between the peak height of the response to agonist, less the background fluorescence within the sample period. […]
# [1] = Determination of brain to plasma ratio in rat; format: in vivo; conditions: brain and plasma, female Sprague Dawley rats, read-out: Brain/Plasma Ratio of compound in Rat
# Method: Brain to plasma ratios are estimated in female Sprague Dawley rats. The compound is dissolved in water or another appropriate vehicle. For determination of brain to plasma ratio the compound is administrated as a subcutaneous, or an intravenous bolus injection, or an intravenous infusion, or an oral administration. At a predetermined time point after the administration a blood sample is taken with cardiac puncture. The rat is terminated by cutting the heart open, and the brain is immediately retained. The blood samples are collected in heparinized tubes and centrifuged within 30 minutes, in order to separate the plasma from the blood cells. The plasma is transferred to 96-well plates and stored at −20° C. until analysis. The brains are divided in half, and each half is placed in a pre-tarred tube and stored at −20° C. until analysis. Prior to the analysis, the brain samples are thawed and 3 ml/g brain tissue of distilled water is added to the tubes. The brain samples are sonicated in an ice bath until the samples are homogenized. Both brain and plasma samples are precipitated with acetonitrile. After centrifugation, the supernatant is diluted with 0.2% formic acid. […] After reconstitution of the residuals the samples are ready for injection onto the HPLC column.
# T1 sequence (P41594 21-942 isoform P41594-3 limits assumed): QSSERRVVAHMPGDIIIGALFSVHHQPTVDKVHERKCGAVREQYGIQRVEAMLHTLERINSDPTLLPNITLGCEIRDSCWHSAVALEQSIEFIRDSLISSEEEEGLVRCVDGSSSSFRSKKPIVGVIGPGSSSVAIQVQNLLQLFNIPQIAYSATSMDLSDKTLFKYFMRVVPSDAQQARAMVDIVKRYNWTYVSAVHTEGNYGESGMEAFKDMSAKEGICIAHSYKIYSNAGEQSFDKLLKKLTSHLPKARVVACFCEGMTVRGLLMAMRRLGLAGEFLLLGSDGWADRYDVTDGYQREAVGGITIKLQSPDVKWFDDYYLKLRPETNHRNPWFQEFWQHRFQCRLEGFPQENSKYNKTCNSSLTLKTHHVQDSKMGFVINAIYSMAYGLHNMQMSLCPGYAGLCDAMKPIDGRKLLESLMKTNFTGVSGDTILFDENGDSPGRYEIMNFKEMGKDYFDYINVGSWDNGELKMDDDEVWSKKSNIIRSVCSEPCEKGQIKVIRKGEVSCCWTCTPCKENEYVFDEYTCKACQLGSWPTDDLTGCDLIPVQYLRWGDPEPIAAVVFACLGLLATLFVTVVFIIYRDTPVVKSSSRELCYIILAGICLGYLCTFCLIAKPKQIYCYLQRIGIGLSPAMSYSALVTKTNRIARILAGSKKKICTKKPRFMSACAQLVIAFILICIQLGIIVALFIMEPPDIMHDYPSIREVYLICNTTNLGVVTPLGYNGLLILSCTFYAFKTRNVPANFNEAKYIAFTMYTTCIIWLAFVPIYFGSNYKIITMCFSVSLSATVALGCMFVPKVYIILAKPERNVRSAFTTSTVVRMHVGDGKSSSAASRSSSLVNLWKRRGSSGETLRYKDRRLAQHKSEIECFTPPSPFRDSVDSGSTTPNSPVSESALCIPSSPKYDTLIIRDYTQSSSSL
IC50 (human mGluR5d),Kp [1],Structure (SMILES)
11 nM,0.27,"Cc1cc(-c2nnc(N3CCC[C@@H]3c3nnn(-c4cccc(Cl)c4)n3)n2C)ccn1 [Example 15.1, 4-(5-{(R)-2-[2-(3-Chloro-phenyl)-2H-tetrazol-5-yl]-pyrrolidin-1-yl}-4-methyl-4H-[1,2,4]triazol-3-yl)-2-methyl-pyridine]"
50 nM,0.13,"COc1cc(-c2nnc(N3CCC[C@@H]3c3nnn(-c4cccc(C#N)c4)n3)n2C)ccn1 [Example 15.3, 3-(5-{(R)-1-[5-(2-Methoxy-pyridin-4-yl)-4-methyl-4H-[1,2,4]triazol-3-yl]-pyrrolidin-2-yl}-tetrazol-2-yl)-benzonitrile]"
